DBAASP
Values after ≈ are worked out from the molar mass of the structure shown.

What was measured:
Assay in all cases: ≥ marks a high value that may be exact or a test limit, other limits are often not marked, values filed in µg/mL are converted to µM
[1] = test system: Escherichia coli ATCC 25922
[2] = test system: Staphylococcus epidermidis ATCC 12228
[3] = test system: Acinetobacter baumannii ATCC 19606
[4] = test system: Pseudomonas aeruginosa ATCC 27853
[5] = test system: Staphylococcus aureus ATCC 25923
Escherichia coli = test system: Escherichia coli
Pseudomonas aeruginosa = test system: Pseudomonas aeruginosa
Staphylococcus aureus = test system: Staphylococcus aureus
[6] = test system: Candida albicans ATCC 90028
[7] = test system: Staphylococcus aureus ATCC 29213
[8] = test system: Candida albicans ATCC 10231

Row | MIC [1] [µM] | MIC [2] [µM] | MIC [4] [µM] | MIC [5] [µM] | Compound | also measured
1 | 0.63 (≈ 1.7 µg/mL) | 0.16 (≈ 0.433 µg/mL) | – | – | CC[C@H](C)[C@H](NC(=O)CN)C(=O)N[C@@H](CCCCN)C(=O)N[C@@H](CCCCN)C(=O)N[C@@H](Cc1c[nH]c2ccccc12)C(=O)N[C@@H](CC(C)C)C(=O)N[C@@H](Cc1cnc[nH]1)C(=O)N[C@@H](CO)C(=O)N[C@@H](C)C(=O)N[C@@H](CCCCN)C(=O)N[C@@H](CCCCN)C(=O)N[C@@H](Cc1ccccc1)C(=O)NCC(=O)N[C@@H](CCCCN)C(=O)N[C@@H](CCCCN)C(=O)N[C@@H](Cc1ccccc1)C(=O)N[C@H](C(=O)N[C@@H](CCCCN)C(=O)N[C@@H](CCCCN)C(=O)N[C@H](C(=O)N[C@@H](CCSC)C(=O)N[C@@H](CC(N)=O)C(=O)N[C@@H](CO)C(N)=O)[C@@H](C)CC)C(C)C [GIKKWLHSAKKFGKKFVKKIMNS] | –
2 | 2.5 (≈ 6.82 µg/mL) | 1.25 (≈ 3.41 µg/mL) | – | – | CC[C@H](C)[C@H](NC(=O)CN)C(=O)N[C@@H](CCCCN)C(=O)N[C@@H](CCCCN)C(=O)N[C@@H](Cc1c[nH]c2ccccc12)C(=O)N[C@@H](CC(C)C)C(=O)N[C@@H](Cc1cnc[nH]1)C(=O)N[C@@H](CO)C(=O)N1CCC[C@H]1C(=O)N[C@@H](CCCCN)C(=O)N[C@@H](CCCCN)C(=O)N[C@@H](Cc1ccccc1)C(=O)NCC(=O)N[C@@H](CCCCN)C(=O)N[C@@H](CCCCN)C(=O)N[C@@H](Cc1ccccc1)C(=O)N[C@H](C(=O)N[C@@H](CCCCN)C(=O)N[C@@H](CCCCN)C(=O)N[C@H](C(=O)N[C@@H](CCSC)C(=O)N[C@@H](CC(N)=O)C(=O)N[C@@H](CO)C(N)=O)[C@@H](C)CC)C(C)C [GIKKWLHSPKKFGKKFVKKIMNS] | –
3 | 0.63 (≈ 1.72 µg/mL) | 0.08 (≈ 0.218 µg/mL) | – | – | CC[C@H](C)[C@H](NC(=O)CN)C(=O)N[C@@H](CCCCN)C(=O)N[C@@H](CCCCN)C(=O)N[C@@H](Cc1c[nH]c2ccccc12)C(=O)N[C@@H](CC(C)C)C(=O)N[C@@H](Cc1cnc[nH]1)C(=O)N[C@@H](CCCCN)C(=O)NCC(=O)N[C@@H](CCCCN)C(=O)N[C@@H](CCCCN)C(=O)N[C@@H](Cc1ccccc1)C(=O)NCC(=O)N[C@@H](CCCCN)C(=O)N[C@@H](CCCCN)C(=O)N[C@@H](Cc1ccccc1)C(=O)N[C@H](C(=O)N[C@@H](CCCCN)C(=O)N[C@@H](CCCCN)C(=O)N[C@H](C(=O)N[C@@H](CCSC)C(=O)N[C@@H](CC(N)=O)C(=O)N[C@@H](CO)C(N)=O)[C@@H](C)CC)C(C)C [GIKKWLHKGKKFGKKFVKKIMNS] | –
4 | 5 (≈ 7.65 µg/mL) | – | 10 (≈ 15.3 µg/mL) | – | CC[C@H](C)[C@H](NC(=O)[C@H](CCCN=C(N)N)NC(=O)[C@H](CCC(N)=O)NC(=O)[C@@H](NC(=O)[C@H](C)NC(=O)[C@H](CCCN=C(N)N)NC(=O)[C@@H](N)CCCCN)C(C)C)C(=O)N[C@@H](CCCCN)C(=O)N[C@@H](CC(=O)O)C(=O)N[C@@H](Cc1ccccc1)C(=O)N[C@@H](CC(C)C)C(=O)N[C@@H](CCCN=C(N)N)C(=O)O [KRAVQRIKDFLR] | MIC [6]: ≥ 40 µM; MIC [7]: 20 µM (≈ 30.6 µg/mL)
5 | – | – | 4.54 (≈ 9.9 µg/mL) | – | CC(C)C[C@H](NC(=O)[C@H](CCCCN)NC(=O)[C@H](Cc1ccccc1)NC(=O)[C@H](CC(C)C)NC(=O)[C@H](CC(C)C)NC(=O)[C@@H]1CCCN1C(=O)[C@H](CCCCN)NC(=O)[C@H](CC(C)C)NC(=O)[C@H](CCCCN)NC(=O)[C@@H]1CCCN1C(=O)[C@H](CC(C)C)NC(=O)[C@H](CC(C)C)NC(=O)[C@H](CC(C)C)NC(=O)[C@H](CCCCN)NC(=O)[C@H](CC(C)C)NC(=O)[C@H](CC(C)C)NC(=O)[C@H](CCCCN)NC(=O)[C@@H](N)Cc1ccc(O)cc1)C(N)=O [YKLLKLLLPKLKPLLFKL] | MIC [8]: 69.1 µM (≈ 151 µg/mL); MIC [7]: 1.78 µM (≈ 3.87 µg/mL)
6 | 115 (≈ 128 µg/mL) | – | 7.17 (≈ 7.99 µg/mL) | > 115 | CC(C)C[C@H](NC(=O)[C@H](CC(C)C)NC(=O)[C@H](CCCCN)NC(=O)[C@H](CCCCN)NC(=O)[C@H](CC(C)C)NC(=O)[C@H](CC(N)=O)NC(=O)[C@H](CCCCN)NC(=O)[C@H](CC(C)C)NC(=O)[C@@H](N)Cc1ccccc1)C(N)=O [FLKNLKKLL] | MIC [3]: > 115 µM
7 | 10 (≈ 27.5 µg/mL) | 5 (≈ 13.8 µg/mL) | – | – | CC[C@H](C)[C@H](NC(=O)CN)C(=O)N[C@@H](CCCCN)C(=O)N[C@@H](CCCCN)C(=O)N[C@@H](Cc1c[nH]c2ccccc12)C(=O)N1CCC[C@H]1C(=O)N[C@@H](Cc1cnc[nH]1)C(=O)N[C@@H](CCCCN)C(=O)N1CCC[C@H]1C(=O)N[C@@H](CCCCN)C(=O)N[C@@H](CCCCN)C(=O)N[C@@H](Cc1ccccc1)C(=O)NCC(=O)N[C@@H](CCCCN)C(=O)N[C@@H](CCCCN)C(=O)N[C@@H](Cc1ccccc1)C(=O)N[C@H](C(=O)N[C@@H](CCCCN)C(=O)N[C@@H](CCCCN)C(=O)N[C@H](C(=O)N[C@@H](CCSC)C(=O)N[C@@H](CC(N)=O)C(=O)N[C@@H](CO)C(N)=O)[C@@H](C)CC)C(C)C [GIKKWPHKPKKFGKKFVKKIMNS] | –

More lines, now with the values behind:

Row | Compound | MIC [1] [µM] | MIC [2] [µM] | MIC [4] [µM] | MIC [5] [µM] | also measured
8 | CC(C)C[C@H](NC(=O)[C@H](CC(C)C)NC(=O)[C@H](CCCCN)NC(=O)[C@H](CCCCN)NC(=O)[C@H](CC(C)C)NC(=O)[C@@H]1CCCN1C(=O)[C@H](CCCCN)NC(=O)[C@H](CC(C)C)NC(=O)[C@@H](N)Cc1ccccc1)C(N)=O [FLKPLKKLL] | > 116 | – | 7.28 (≈ 7.99 µg/mL) | > 116 | MIC [3]: > 116 µM
9 | CC(C)C[C@H](NC(=O)CNC(=O)[C@H](C)NC(=O)[C@H](CC(C)C)NC(=O)[C@H](CCCCN)NC(=O)[C@H](CCCCN)NC(=O)[C@H](C)NC(=O)[C@H](CC(C)C)NC(=O)CNC(=O)[C@H](C)NC(=O)[C@H](Cc1c[nH]c2ccccc12)NC(=O)[C@H](CCCCN)NC(=O)[C@H](CCCCN)NC(=O)[C@H](C)NC(=O)[C@H](CC(C)C)NC(=O)CNC(=O)[C@H](C)NC(=O)[C@H](CC(C)C)NC(=O)[C@H](CCCCN)NC(=O)[C@@H](N)CCCCN)C(=O)N[C@@H](C)C(N)=O [KKLAGLAKKWAGLAKKLAGLA] | – | – | – | – | MIC (Escherichia coli): 3.74 µM (≈ 8 µg/mL); MIC (Pseudomonas aeruginosa): 7.49 µM (≈ 16 µg/mL); MIC (Staphylococcus aureus): 7.49 µM (≈ 16 µg/mL)
10 | CC(C)C[C@H](NC(=O)[C@H](CC(C)C)NC(=O)[C@H](CCCCN)NC(=O)[C@H](CCCCN)NC(=O)[C@H](CC(C)C)NC(=O)[C@H](CCC(=O)O)NC(=O)[C@H](CCCCN)NC(=O)[C@H](CC(C)C)NC(=O)[C@@H](N)Cc1ccccc1)C(N)=O [FLKELKKLL] | 113 (≈ 128 µg/mL) | – | 14.1 (≈ 16 µg/mL) | > 113 | MIC [3]: 113 µM (≈ 128 µg/mL)
11 | CC[C@H](C)[C@H](NC(=O)CN)C(=O)N[C@@H](CCCCN)C(=O)N[C@@H](CCCCN)C(=O)N[C@@H](Cc1c[nH]c2ccccc12)C(=O)N[C@@H](CC(C)C)C(=O)N[C@@H](Cc1cnc[nH]1)C(=O)N[C@@H](CO)C(=O)N[C@@H](C)C(=O)N[C@@H](CCCCN)C(=O)N[C@@H](CCCCN)C(=O)N[C@@H](Cc1ccccc1)C(=O)N1CCC[C@H]1C(=O)N[C@@H](CCCCN)C(=O)N[C@@H](CCCCN)C(=O)N[C@@H](Cc1ccccc1)C(=O)N[C@H](C(=O)N[C@@H](CCCCN)C(=O)N[C@@H](CCCCN)C(=O)N[C@H](C(=O)N[C@@H](CCSC)C(=O)N[C@@H](CC(N)=O)C(=O)N[C@@H](CO)C(N)=O)[C@@H](C)CC)C(C)C [GIKKWLHSAKKFPKKFVKKIMNS] | 1.25 (≈ 3.43 µg/mL) | 0.31 (≈ 0.85 µg/mL) | – | – | –
12 | CC[C@H](C)[C@H](NC(=O)CN)C(=O)NCC(=O)N[C@@H](CO)C(=O)N[C@H](C(=O)N[C@@H](CC(C)C)C(=O)NCC(=O)N[C@H](C(=O)N[C@H](C(=O)N[C@@H](C)C(=O)N[C@@H](CCCCN)C(=O)NCC(=O)N[C@@H](CC(C)C)C(=O)N1CCC[C@H]1C(=O)N[C@H](C(=O)N[C@@H](CC(C)C)C(=O)N[C@H](C(=O)N[C@@H](CO)C(=O)N[C@@H](Cc1c[nH]c2ccccc12)C(=O)N[C@H](C(=O)N[C@@H](CCCCN)C(=O)N[C@@H](CC(N)=O)C(=O)N[C@@H](CCCN=C(N)N)C(N)=O)[C@@H](C)CC)[C@@H](C)CC)[C@@H](C)O)[C@@H](C)CC)C(C)C)[C@@H](C)CC [GIGSILGVIAKGLPTLISWIKNR] | 20 (≈ 48.1 µg/mL) | – | – | 5 (≈ 12 µg/mL) | MIC [6]: 20 µM (≈ 48.1 µg/mL)
13 | CC(C)C[C@H](NC(=O)[C@H](CC(C)C)NC(=O)[C@H](CCCCN)NC(=O)[C@H](CCCCN)NC(=O)[C@H](CC(C)C)NC(=O)[C@@H](NC(=O)[C@H](CCCCN)NC(=O)[C@H](CC(C)C)NC(=O)[C@@H](N)Cc1ccccc1)C(C)C)C(N)=O [FLKVLKKLL] | 29.1 (≈ 32 µg/mL) | – | 7.26 (≈ 7.99 µg/mL) | 29.1 (≈ 32 µg/mL) | MIC [3]: 29.1 µM (≈ 32 µg/mL)
14 | CC[C@H](C)[C@H](N)C(=O)N[C@@H](CC(N)=O)C(=O)N[C@@H](Cc1c[nH]c2ccccc12)C(=O)N[C@@H](CC(C)C)C(=O)N[C@@H](CCCCN)C(=O)N[C@@H](CC(C)C)C(=O)NCC(=O)N[C@@H](CCCCN)C(=O)N[C@@H](CCCCN)C(=O)N[C@H](C(=O)N[C@@H](CC(C)C)C(=O)NCC(=O)N[C@@H](C)C(=O)N[C@@H](CC(C)C)C(N)=O)[C@@H](C)CC [INWLKLGKKILGAL] | – | – | – | – | MIC (Pseudomonas aeruginosa): 86.6 µM (≈ 136 µg/mL); MIC (Staphylococcus aureus): 15.5 µM (≈ 24.3 µg/mL)
15 | CC[C@H](C)[C@H](NC(=O)[C@H](CC(N)=O)NC(=O)[C@H](Cc1cnc[nH]1)NC(=O)[C@H](Cc1ccccc1)NC(=O)[C@H](CC(C)C)NC(=O)[C@H](CCSC)NC(=O)CNC(=O)[C@H](CC(C)C)NC(=O)[C@H](CCSC)NC(=O)[C@H](CCCCN)NC(=O)[C@@H](N)CC(C)C)C(=O)N[C@@H](CCCN=C(N)N)C(=O)N[C@@H](CC(N)=O)C(=O)N[C@H](C(=O)N[C@@H](CC(C)C)C(=O)N[C@@H](CCCCN)C(=O)N[C@H](C(=O)N[C@H](C(N)=O)C(C)C)[C@@H](C)O)[C@@H](C)CC [LKMLGMLFHNIRNILKTV] | – | 64 (≈ 137 µg/mL) | – | 128 (≈ 274 µg/mL) | MIC [6]: ≥ 64 µM
